Measured values published in US11034839B2, “Compounds, linked with haptens, for the detection of senescent cells” (THE UNIVERSITY OF MANCHESTER, priority 2016, dated 2021).

How the values were obtained:
[1] = tested on: lipofuscin rich senescent cells, induced Saos2-p21WAF1/Cip1 Tet-ON cells; assay: Immunohistochemistry staining in induced Saos2-p21WAF1/Cip1 Tet-ON cellular system; type: cell-based, human; conditions: FIG. 13
Description: • 1. Compound (LG13) • 2. 100% ethanol (100% EtOH) • 3. Parafilm • 4. Fritted glass filter of medium porosity • 5. Airtight Dye Container 2.2.2 General Procedure: • 1. Dissolve 40 mg of the compound (LG13) in 7.4 ml 100% EtOH in a glass beaker and cover it with parafilm. • 2. Incubate at 56° C. in a waterbath for 120 min until the compound is completely dissolved. 2.3. General Method for Compound (LG13) Staining 2.3.1 Materials: • 1. Xylene • 2. […] Syringe • 4. 13 mm filter, membrane 0.22 μm • 5. Soft paper (dry or dipped in ethanol) • 6. Anti-biotin antibody ([Hyb-8] ab201341, Abcam) • 7. Ultravision Quanto Detection System HRP DAB kit (Cat no: TL-125-QHD) • 8. Glycerol (Sigma-Aldrich) • 9. Tris Buffered Saline (TBS; 10×): 1.5 M NaCl, 0.1 M Tris-HCl, pH 7.4. Store at 4° C. • 10. 0.5% Triton X/TBS: 0.5 ml Triton X diluted in 99.5 ml TBS • 11. Mounting media Glycergel (DakoCytomation). • 12. Light Microscope • 13. Anti-p21^WAF1/Cip1 mouse primary antibody [(F-5)(sc-6246) Santa-Cruz] • 14. Anti-p16^INK4A mouse primary antibody [(sc-74401) Santa-Cruz] • 15. Anti-Ki67 rabbit polyclonal antibody [ab16667, Abcam] • 16. Secondary goat anti-mouse antibody Alexa Fluor 568 conjugated [Thermo Fisher Scientific (Cat no: A-11004)] • 17. DAPI (4′,6-Diamidino-2-Phenylindole, Dihydrochloride) [Thermo Fisher Scientific (Cat no: D1306)] • 18. Fluorescence microscope 2.3.2 General Procedures: 2.3.2.1 General Staining Protocol for Cells Mounted on Coverslips • 1. Wash ×1 in TBS for 5 min at RT. • 2. Block the endogenous hydrogen peroxidase, using the UltraVision Hydrogen Peroxide Block included in the Ultravision Quanto Detection System HRP DAB kit (Cat no: TL-125-QHD) for 10 min at RT and in dark conditions. • 3. Wash ×2 in TBS for 30 sec and ×1 for 5 min at RT. • 4. Wash ×1 in EtOH 50% for 5 min at RT. • 5. Wash ×1 EtOH 70% for 5 min at RT. • 6. […] The staining reaction is monitored under the light microscope until detection of the signal (average time 5-8 min). • 8. […] The staining reaction is monitored under the light microscope until detection of the dark brown signal (average time 30 sec-1 min) at RT 1. • 20. […]

[2] = tested on: HeLa cancer cells and near normal Li-Fraumeni fibroblasts; assay: False-positive studies (cell confluency, serum starvation); type: cell-based, human; conditions: compared with SA-b-gal, FIGS. 17 and 18
Excerpt: The in vitro models comprised seven cellular systems. […] The same cellular system was used at early passages that underwent SIPS upon y-irradiation and was compared in relation to non-irradiated counterparts. Another set of models comprised two inducible Saos2 Tet-ON osteosarcoma cell lines carrying p53 and p21^WAF1/Cip1, respectively, two well established effectors of senescence (Georgakopoulou et al., 2013; Galanos et al., 2016). Finally, the U2OS-E2F1 ER, U205-Cdt1 Tet-ON and HBECs-Cdc6 Tet-ON inducible systems that undergo SIPS due to oncogenic stress signals were also utilized (Petrakis et al., 2016; Liontos et al., 2007; Liontos et al., 2009). Parental cell lines were obtained either directly from ATCC or from collaborating laboratories that generated them. In addition, the human cancer cell line HeLa and near normal Li-Fraumeni fibroblasts (Galanos et al., 2016) were also employed as control cell lines for the specificity of staining of the SBB compounds.

[3] = tested on: senescent cells in biological systems with established senescence; assay: Quantitative analysis and concordance of SA-b-gal, SBB and GL13 staining; conditions: FIG. 15
Ethanol solubility = type: physicochemical
[4] = tested on: senescent cells (lipofuscin); conditions: Georgakopoulou et al, 2013; cited from earlier work
[5] = tested on: senescent cells in irradiated human laryngeal tumors and mouse lung adenomas; assay: Histochemical staining of paraffin embedded, formalin fixed tissue sections (same method as for SBB); conditions: FFPE sections of irradiated human laryngeal tumors and mouse lung adenomas; dye in 70% ethanol, 10 min
Excerpt: In the following comparative example 1 the histochemical dye SBB was used to detect senescent cells in tissue sections by the histochemical method previously described [Georgakopoulou et al, Aging (Albany N.Y.) 2013].
Tissue sections were obtained from paraffin embedded, formalin fixed: (a) irradiated human laryngeal tumors and (b) mouse lung adenomas, with established presence of senescent cells. Subsequently, they were immobilized on glass microscopy slides by standard procedures and processed as follows: • a. Deparaffinization for 5 min at room temperature in xylene. • b. Gradual rehydration in solutions of descending concentration of ethanol (100%, 80%, 70%, 50% v/v) and finally in TBS (Tris-buffered saline) or PBS (Phosphate-buffered saline) solution. • c. The SBB dye was diluted in 70% ethanol (v/v), filtered and then applied on tissue sections for 10 min. • d. Quick wash in 50% (v/v) ethanol. • e. Transfer and wash in TBS or PBS solution. • f. Counterstain with Hematoxylin or Nuclear Fast Red, followed by mounting with glycerol and sealed with a cover slip. • g. Microscopy observation. […]

lipofuscin = conditions: Georgakopoulou et al., 2013; cited from earlier work

SMILES: CC1(CCOC(=O)CCCC[C@H]2SC[C@H]3NC(=O)N[C@H]32)Nc2cccc3c(/N=N/c4ccc(/N=N/c5ccccc5)c5ccccc45)ccc(c23)N1 (stereo partly drawn) [LG39, 2-(2-Methyl-6-((E)-(4-((E)-phenyldiazenyl)naphthalen-1-yl)diazenyl)-2,3-dihydro-1H-perimidin-2-yl)ethyl 5-((3aR,4R,6aS)-2-oxohexahydro-1H-thieno[3,4-d]imidazol-4-yl)pentanoate]
- detection of lipofuscin rich senescent cells by immunohistochemistry staining [1]: detect robustly lipofuscin rich senescent cells

SMILES: CC1(C)Nc2cccc3c(/N=N/c4ccc(/N=N/c5ccc(CCOC(=O)CCCC[C@H]6SC[C@H]7NC(=O)N[C@H]76)cc5)c5ccccc45)ccc(c23)N1 [LG52, 4-((E)-(4-((E)-(2,2-Dimethyl-2,3-dihydro-1H-perimidin-6-yl)diazenyl)naphthalen-1-yl)diazenyl)phenethyl 5-((3aR,4R,6aS)-2-oxohexahydro-1H-thieno[3,4-d]imidazol-4-yl)pentanoate]
- detection of lipofuscin rich senescent cells by immunohistochemistry staining [1]: detect robustly lipofuscin rich senescent cells

SMILES: CC1(CCCOC(=O)CCCC[C@H]2SC[C@H]3NC(=O)N[C@H]32)Nc2cccc3c(/N=N/c4ccc(/N=N/c5ccccc5)c5ccccc45)ccc(c23)N1 (stereo partly drawn) [LG56, 3-(2-Methyl-6-((E)-(4-((E)-phenyldiazenyl)naphthalen-1-yl)diazenyl)-2,3-dihydro-1H-perimidin-2-yl)propyl 5-((3aR,4R,6aS)-2-oxohexahydro-1H-thieno[3,4-d]imidazol-4-yl)pentanoate]
- detection of lipofuscin rich senescent cells by immunohistochemistry staining [1]: detect robustly lipofuscin rich senescent cells

SMILES: CC1(C)Nc2cccc3c(/N=N/c4ccc(/N=N/c5ccccc5)c5ccccc45)ccc(c23)N1 [SBB, Sudan Black B]
- false-positive staining due to serum starvation and cell confluency [2]: deprived of the false-positive staining disadvantages
- specificity compared among SA-b-gal, SBB and GL13 staining [3]: concordance of specificity
- ethanol solubility (Ethanol solubility): ethanol solubility problems
- selectivity of lipofuscin stain for senescent cells [4]: highly selective for the detection of senescent cells
- histochemical staining of senescent cells [5]: senescent cells are clearly stained
- effect of staining on lipofuscin autofluorescence (lipofuscin): quenched
